For assay [1], the target named is T1, human A1AR (Homo sapiens, UniProt P30542).
T1 construct: expressed in transfected cells; host or cells: CHO cells, crude membrane fractions
T1 sequence (P30542 1-326): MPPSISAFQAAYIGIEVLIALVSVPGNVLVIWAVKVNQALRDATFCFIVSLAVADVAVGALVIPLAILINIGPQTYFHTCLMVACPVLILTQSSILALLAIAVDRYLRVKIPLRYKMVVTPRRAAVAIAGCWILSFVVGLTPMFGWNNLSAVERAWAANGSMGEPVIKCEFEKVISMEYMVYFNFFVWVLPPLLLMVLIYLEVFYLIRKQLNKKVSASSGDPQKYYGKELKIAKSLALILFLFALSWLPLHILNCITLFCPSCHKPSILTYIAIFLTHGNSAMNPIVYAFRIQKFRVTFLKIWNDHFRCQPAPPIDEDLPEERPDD
The conditions noted are these: [3H]-CCPA displacement, human A1AR in CHO cells; geometric mean with 95% confidence limits; read-out: Ki A1; cited from earlier work.

The target in assay [2] is T2, human A2BAR (Homo sapiens, UniProt P29275).
T2 construct: expressed in transfected cells; host or cells: CHO cells, crude membrane fractions
T2 sequence (P29275 1-332): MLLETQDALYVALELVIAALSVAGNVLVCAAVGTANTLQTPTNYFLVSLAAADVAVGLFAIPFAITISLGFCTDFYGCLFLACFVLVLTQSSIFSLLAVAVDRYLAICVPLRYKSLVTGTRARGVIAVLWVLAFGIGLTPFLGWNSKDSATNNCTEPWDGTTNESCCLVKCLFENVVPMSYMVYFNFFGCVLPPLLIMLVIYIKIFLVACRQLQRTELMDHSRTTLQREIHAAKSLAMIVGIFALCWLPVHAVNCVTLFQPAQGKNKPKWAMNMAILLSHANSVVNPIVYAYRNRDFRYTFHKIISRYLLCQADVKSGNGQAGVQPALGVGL
The conditions noted are these: inhibition of NECA-stimulated AC activity, CHO cells expressing human A2BAR; geometric mean with 95% confidence limits; read-out: IC50 A2B; cited from earlier work.

Assay [3] has as its system tacrine-induced tremulous jaw movements. Briefly: Tacrine-induced tremulous jaw movements. It counts as in vivo, rat. Particulars: rats, 5 mg/kg i.p. pretreatment, tacrine 2.5 mg/kg i.p.; 60 min, versus vehicle. On the procedure:
Rats were divided into two groups and treated with vehicle or 4 (5 mg/kg. i.p.). Tacrine (2.5 mg/kg i.p.) was administered 20 min after vehicle or 4, and the number of TJMs and bursts of TJMs (i.e., episodes of consecutive TJMs) were measured for 60 min. TJMs were defined as vertical deflections of the lower jaw not directed at a particular stimulus. Yawns, tongue protrusions, and stereotypies, such as grooming, were not scored. In the tacrine-induced TJM tests, the mean and S.E.M of the number of TJMs and bursts were calculated. Significant differences between groups were evaluated by Student’s t-test.

As usually defined, the Ki is the equilibrium dissociation constant of an inhibitor or competing ligand from its target. For orientation: IC50 means the concentration that inhibits the measured activity by half. For `CCn1c(Br)nc2c(N)nc(OCCc3ccccc3)nc21` [Compound 1, 8-bromo-9-ethyl-2-phenetoxyadenine], the inhibition constant (Ki) in assay [1] was 0.023 µM. Besides, in assay [2], the half-inhibitory concentration (IC50) was 0.569 µM.
On to `CCOc1nc2c(N)nc(OCCc3ccccc3)nc2n1CC` [Compound 4, 8-ethoxy-9-ethyl-2-phenethoxyadenine], for which, in assay [3], the “Number of tremor bursts induced by tacrine” value is recorded as “but not tremor bursts” and the “Number of tremulous jaw movements induced by tacrine” value was “significantly reduced”.

These data come from paper PMC11898488, “A2A Adenosine Receptor Antagonists and Their Efficacy in Rat Models of Parkinson’s Disease” (Cells, 2025).
